Measured values published in patent US20240132484A1, “BROAD SPECTRUM ANTIVIRAL COMPOUNDS TARGETING THE SKI COMPLEX” (priority 2020, published 2024).
“And” between values parts separate entries of the source, which are not always exact repeats. Equal values may be shown once. Read-outs that look alike come from different tables or passages of the source.

Key:
cells (nuclei count) = settings: for Toxicity Data: Average, Mean: average of Exp 1-3 (SMW475, SMW477, SMW478), n 9
SARS2 = assay type: cell-based, SARS-CoV-2; settings: for Infection Data: Percentage Infection Relative to Appropriate DMSO Control: avg background subtraction, replicate wells; for Infection Data: Average, Mean: average of Exp 1-3 (SMW475, SMW477, SMW478), n 9

## Cc1cc(CN(CCN(C)C)Cc2ccco2)sc1Br [SILCS15]
Cells (nuclei count); 1 uM
  Toxicity Data: Average, Mean: 105.96%
Cells (nuclei count); 1 μM, toxicity data, 100=DMSO control
  Relative cell count to DMSO controls, Average 1 μM: 105.96
Cells (nuclei count); 5 uM
  Toxicity Data: Average, Mean: 104.00%
Cells (nuclei count); 5 μM, toxicity data, 100=DMSO control
  Relative cell count to DMSO controls, Average 5 μM: 104
Cells (nuclei count); 10 uM
  Toxicity Data: Average, Mean: 107.75%
Cells (nuclei count); 10 μM, toxicity data, 100=DMSO control
  Relative cell count to DMSO controls, Average 10 μM: 107.75
Cells (nuclei count); 25 uM
  Toxicity Data: Average, Mean: 115.74%
Cells (nuclei count); 25 μM, toxicity data, 100=DMSO control
  Relative cell count to DMSO controls, Average 25 μM: 115.74
Cells (nuclei count); 50 uM
  Toxicity Data: Average, Mean: 65.19%
Cells (nuclei count); 50 μM, toxicity data, 100=DMSO control
  Relative cell count to DMSO controls, Average 50 μM: 65.19
Cells (nuclei count); average value over the 5 tested concentrations (1 to 50 uM)
  Relative cell count to DMSO controls, Average (for correlation analysis): 99.73
SARS2; 1 uM, Exp 1 (SMW475)
  Infection Data: Percentage Infection Relative to Appropriate DMSO Control: 117.62% and 124.56% and 121.12%
SARS2; 1 uM, Exp 2 (SMW477)
  Infection Data: Percentage Infection Relative to Appropriate DMSO Control: 103.78% and 103.22% and 100.05%
SARS2; 1 uM, Exp 3 (SMW478)
  Infection Data: Percentage Infection Relative to Appropriate DMSO Control: 107.90% and 99.19% and 97.03%
SARS2; 1 uM
  Infection Data: Average, Mean: 108.27%
SARS2; 5 uM, Exp 1 (SMW475)
  Infection Data: Percentage Infection Relative to Appropriate DMSO Control: 131.70% and 141.65% and 132.54%
SARS2; 5 uM, Exp 2 (SMW477)
  Infection Data: Percentage Infection Relative to Appropriate DMSO Control: 102.31% and 90.53% and 98.90%
SARS2; 5 uM, Exp 3 (SMW478)
  Infection Data: Percentage Infection Relative to Appropriate DMSO Control: 98.36% and 110.89% and 93.32%
SARS2; 5 uM
  Infection Data: Average, Mean: 111.13%
SARS2; 10 uM, Exp 1 (SMW475)
  Infection Data: Percentage Infection Relative to Appropriate DMSO Control: 79.51% and 121.98% and 93.64%
SARS2; 10 uM, Exp 2 (SMW477)
  Infection Data: Percentage Infection Relative to Appropriate DMSO Control: 75.81% and 72.41% and 82.10%
SARS2; 10 uM, Exp 3 (SMW478)
  Infection Data: Percentage Infection Relative to Appropriate DMSO Control: 111.15% and 106.59% and 85.32%
SARS2; 10 uM
  Infection Data: Average, Mean: 92.05%
SARS2; 25 uM, Exp 1 (SMW475)
  Infection Data: Percentage Infection Relative to Appropriate DMSO Control: 30.31% and 27.68% and 26.54%
SARS2; 25 uM, Exp 2 (SMW477)
  Infection Data: Percentage Infection Relative to Appropriate DMSO Control: 35.02% and 27.68% and 29.29%
SARS2; 25 uM, Exp 3 (SMW478)
  Infection Data: Percentage Infection Relative to Appropriate DMSO Control: 35.78% and 39.52% and 32.45%
SARS2; 25 uM
  Infection Data: Average, Mean: 31.59%
SARS2; 50 uM, Exp 1 (SMW475)
  Infection Data: Percentage Infection Relative to Appropriate DMSO Control: 23.93% and 15.87% and 20.00%
SARS2; 50 uM, Exp 2 (SMW477)
  Infection Data: Percentage Infection Relative to Appropriate DMSO Control: 18.29% and 18.14% and 19.12%
SARS2; 50 uM, Exp 3 (SMW478)
  Infection Data: Percentage Infection Relative to Appropriate DMSO Control: 20.62% and 25.98% and 33.79%
SARS2; 50 uM
  Infection Data: Average, Mean: 21.75%
SARS2; SARS2, 1 μM
  Percentage Inhibition Average 1 μM: −8.27%
SARS2; SARS2, 1 μM, 100=DMSO control
  Screening data (Relative infection to DMSO controls) Average 1 μM: 108.27
SARS2; SARS2, 5 μM
  Percentage Inhibition Average 5 μM: −11.13%
SARS2; SARS2, 5 μM, 100=DMSO control
  Screening data (Relative infection to DMSO controls) Average 5 μM: 111.13
SARS2; SARS2, 10 μM
  Percentage Inhibition Average 10 μM: 7.95%
SARS2; SARS2, 10 μM, 100=DMSO control
  Screening data (Relative infection to DMSO controls) Average 10 μM: 92.05
SARS2; SARS2, 25 μM
  Percentage Inhibition Average 25 μM: 68.41%
SARS2; SARS2, 25 μM, 100=DMSO control
  Screening data (Relative infection to DMSO controls) Average 25 μM: 31.59
SARS2; SARS2, 50 μM
  Percentage Inhibition Average 50 μM: 78.25%
SARS2; SARS2, 50 μM, 100=DMSO control
  Screening data (Relative infection to DMSO controls) Average 50 μM: 21.75
SARS2; SARS2, average over 1 to 50 uM, 100=DMSO control
  Average (relative infection to DMSO over the 5 tested concentrations): 72.96
